Measurements as given in patent publication US6916845B2, “Method for prevention and treatment of male and female sexual dysfunction” (priority 1999, dated 2005).

Columns and labels:
[1] = test system: patients; conditions: patients on antihypertensive agent; cited from earlier work
[2] = test system: rabbit's CC smooth muscle; assay: Relaxation of PHE pre-contracted corpus cavernosum smooth muscle strips in organ chamber; assay type: cell-based; conditions: for effect of pre-treatment on the relaxation effects of icariin: pre-treatment before icariin
Protocol: Sixty adults male New Zealand white rabbits(Weight: 2.5-3.0 kg) were used. Rabbits were anesthesia with sodium pentobarbital(50 mg/kg), penis was removed and corpus cavernous tissue were carefully isolated and made into 2×2×6 mm muscle strips for isometric tension was measured in organ chamber in vitro study with polygraph(MP 100 WS:Biopac systems, USA). CC muscle strip was fixed in 10 ml organ chamber containing Tyrode solution and continuously supplied with mixed gas(95% O2 and 5% CO2) and keep temperature at 37° C. The initial resting tensions of muscle strips were set at 2 g and tissue was allowed to equilibrate for 1.5-3.0 hours. Sub-maximal contractile responses to phenylepherine(PHE 5×10^-6 M) were observed and optimal isometric tension was determined. To evaluate the relaxation effects of icariin (the other components magnoflorine, querectin, epimedin A, B and C as the controls) on CC muscle strips, investigated the relaxation effects of different dosage of icariin on muscle strips pre-contracted by PHE. And to investigate the pharmaceutical action mechanism, the effects of […] Nω-nitric-L-arginine(L-NNA), guanylate cyclase antagonist methylene blue and pyrogallol, soluble guanylate cyclase inhibitor 1H-[1,2,4]oxadiazolo[4,3,-a]quinoxalin-1-one (ODQ) on the relaxation effects of icariin on CC.

[3] = test system: adult male rat; assay: Intracavernosal press (ICP) changes after intracavernosal administration and cavernous nerve electrical stimulation; assay type: in vivo; conditions: for Inhibiting Effect on Icariin induced Relaxation of CC. (ICP changes): 10 minutes after Icariin 100 μl 10^−4M
Protocol: Twenty-four male, adult Wistar rats(weight:300-350 g) were used. After anesthetization, the left carotid artery was cannulated to monitor mean arterial pressure (MAP). Bipolar electrodes were positioned on the cavernous nerve (CN); the right cavernous body was cannulated with 26 G needle connected with Biopack MP100 to monitor ICP changes. After intracavemosal administration of 100 μl different concentration Icariin or Reserpine (10^−8M to 10^−4M) respectively, the CN was electrically stimulated (ES) 10 minutes later and ICP and MAP were monitored. In order to investigate the possible mechanism of the effect of icariin on ICP changes, 100 μl different concentration guanylate cyclase inhibitor ODQ (10^−8M-10^−4M) were intracavemosal administrated 10 minutes after Icariin (100 μl 10^−4M) administration into CC, and then the ICP was measured during erection, which was, followed the ES.

[4] = test system: cGMP formation in rabbit corpus cavernosum; assay: cGMP formation in corpus cavernosum of penis stimulated with SNP, radioimmunoassay; assay type: cell-based; conditions: in the presence of SNP
[5] = test system: PDE4 isolated from human liver tissue; assay: Inhibition of cAMP specific PDE4, two-step radioisotope procedure; assay type: biochemical
Protocol: PDE5 and PDE4 were isolated from human platelets and liver tissue using a Pharmacia FPLC system and Mono Q column. The cyclic nucleotide PDE5/PDE4 activities in FPLC fractions were determined using a modification of the two-step radioisotope procedure ([^3H]GMP/[^3H]AMP).

[6] = test system: cGMP formation in clitoris CC of female rabbits; assay: cGMP formation in CC of clitoris stimulated with SNP, radioimmunoassay; assay type: cell-based, rabbit

## Clc1cccc(Cl)c1NC1=NCCN1 [clodidine]
[1]
  sexual dysfunction associated with the agent, % of patients: 41%

## C[C@](N)(Cc1ccc(O)c(O)c1)C(=O)O [alpha-methyldopa]
[1]
  sexual dysfunction associated with the agent, % of patients: 20-30%

## CN(C)c1ccc2nc3ccc(=[N+](C)C)cc-3sc2c1 [Methylene blue, methylene blue]
[2]; icariin 10^−4M
  icariin induced relaxation of CC smooth muscle strips after pre-treatment with the named inhibitor: 13.45 ± 1.12%
[2]; icariin 10^−5M
  icariin induced relaxation of CC smooth muscle strips after pre-treatment with the named inhibitor: 2.02 ± 0.45%
[2]; icariin 10^−6M
  icariin induced relaxation of CC smooth muscle strips after pre-treatment with the named inhibitor: 0.52 ± 0.68%
[2]
  effect of pre-treatment on the relaxation effects of icariin: significantly inhibited

## O=c1c(O)c(-c2ccc(O)c(O)c2)oc2cc(O)cc(O)c12 [querectin]
[2]
  relaxation effects on CC: no significant relaxation effects

## COc1ccc(-c2oc3c(CC=C(C)C)c(OC4OC(CO)C(O)C(O)C4O)cc(O)c3c(=O)c2OC2OC(C)C(O)C(O)C2OC2OC(CO)C(O)C(O)C2O)cc1 (stereo not drawn) [epimedin A]
[2]
  relaxation effects on CC: no significant relaxation effects

## Oc1cccc(O)c1O [Pyrogallol, pyrogallol]
[2]; icariin 10^−4M
  icariin induced relaxation of CC smooth muscle strips after pre-treatment with the named inhibitor: 15.68 ± 1.15%
[2]; icariin 10^−5M
  icariin induced relaxation of CC smooth muscle strips after pre-treatment with the named inhibitor: 3.45 ± 0.73%
[2]; icariin 10^−6M
  icariin induced relaxation of CC smooth muscle strips after pre-treatment with the named inhibitor: 0.85 ± 0.45%
[2]
  effect of pre-treatment on the relaxation effects of icariin: significantly inhibited

## COc1ccc2c(c1O)-c1c(O)c(OC)cc3c1[C@H](C2)[N+](C)(C)CC3 [magnoflorine]
[2]
  relaxation effects on CC: no significant relaxation effects

## O=c1onc2cnc3ccccc3n12 [ODQ, 1H-[1,2,4]oxadiazolo[4,3,-a]quinoxalin-1-one]
[2]; icariin 10^−4M
  icariin induced relaxation of CC smooth muscle strips after pre-treatment with the named inhibitor: 10.45 ± 1.08%
[2]; icariin 10^−5M
  icariin induced relaxation of CC smooth muscle strips after pre-treatment with the named inhibitor: 1.85 ± 0.35%
[2]; icariin 10^−6M
  icariin induced relaxation of CC smooth muscle strips after pre-treatment with the named inhibitor: 0.42 ± 0.48%
[2]
  effect of pre-treatment on the relaxation effects of icariin: significantly inhibited
[3]; ODQ 10^−4M
  Inhibiting Effect on Icariin induced Relaxation of CC. (ICP changes): 80.24 ± 8.05%
[3]; ODQ 10^−5M
  Inhibiting Effect on Icariin induced Relaxation of CC. (ICP changes): 58.45 ± 6.00%
[3]; ODQ 10^−6M
  Inhibiting Effect on Icariin induced Relaxation of CC. (ICP changes): 23.09 ± 4.29%
[3]; ODQ 10^−7M
  Inhibiting Effect on Icariin induced Relaxation of CC. (ICP changes): 17.16 ± 1.77%

## CCCc1nn(C)c2c(=O)[nH]c(-c3cc(S(=O)(=O)N4CCN(C)CC4)ccc3OCC)nc12 [Sildenafil]
[4]; 10^−3M
  cGMP concentration changes: 12.35 ± 2.56 fmol/mg/min
[4]; 10^−4M
  cGMP concentration changes: 11.98 ± 2.39 fmol/mg/min
[4]; 10^−5M
  cGMP concentration changes: 12.69 ± 2.24 fmol/mg/min
[4]; 10^−6M
  cGMP concentration changes: 10.65 ± 2.28 fmol/mg/min
[4]; Oryctolagus cuniculus, read-out: EC50 (cGMP formation, CC of penis)
  EC50: 0.31 µM
[5]
  IC50: 14.6 µM
[6]
  cGMP concentration in clitoris CC: significantly increased
[6]; Oryctolagus cuniculus, stimulated with SNP, read-out: EC50 (cGMP formation, CC of clitoris)
  EC50: 0.31 µM

## NC(=NCCC[C@H](N)C(=O)O)N[N+](=O)[O-] [L-NNA, Nω-nitric-L-arginine]
[2]; icariin 10^−4M
  icariin induced relaxation of CC smooth muscle strips after pre-treatment with the named inhibitor: 15.68 ± 1.15%
[2]; icariin 10^−5M
  icariin induced relaxation of CC smooth muscle strips after pre-treatment with the named inhibitor: 3.23 ± 0.89%
[2]; icariin 10^−6M
  icariin induced relaxation of CC smooth muscle strips after pre-treatment with the named inhibitor: 0.82 ± 0.58%
[2]
  effect of pre-treatment on the relaxation effects of icariin: significantly inhibited

## COc1ccc(Cc2nccc3cc(OC)c(OC)cc23)cc1OC [Papaverine, papaverine]
[4]; 10^−3M
  cGMP concentration changes: 11.43 ± 65 fmol/mg/min
[4]; 10^−4M
  cGMP concentration changes: 9.82 ± 2.16 fmol/mg/min
[4]; 10^−5M
  cGMP concentration changes: 8.92 ± 1.87 fmol/mg/min
[4]; 10^−6M
  cGMP concentration changes: 8.66 ± 2.07 fmol/mg/min

## NS(=O)(=O)c1cc2c(cc1C(F)(F)F)NC(Cc1ccccc1)NS2(=O)=O (stereo not drawn) [bendrofluazide]
[1]
  sexual dysfunction associated with the agent, % of patients: 36%

## COc1ccc(-c2oc3c(CC=C(C)C)c(O[C@@H]4O[C@H](CO)[C@@H](O)[C@H](O)[C@H]4O)cc(O)c3c(=O)c2O[C@@H]2O[C@@H](C)[C@H](O)[C@@H](O)[C@H]2O[C@@H]2OC[C@@H](O)[C@H](O)[C@H]2O)cc1 [epimedin B]
[2]
  relaxation effects on CC: no significant relaxation effects

## COc1ccc(-c2oc3c(CC=C(C)C)c(O[C@@H]4O[C@H](CO)[C@@H](O)[C@H](O)[C@H]4O)cc(O)c3c(=O)c2O[C@@H]2O[C@@H](C)[C@H](O)[C@@H](O)[C@H]2O[C@@H]2O[C@@H](C)[C@H](O)[C@@H](O)[C@H]2O)cc1 [epimedin C]
[2]
  relaxation effects on CC: no significant relaxation effects

## COC(=O)[C@H]1[C@H]2C[C@@H]3c4[nH]c5cc(OC)ccc5c4CCN3C[C@H]2C[C@@H](OC(=O)c2cc(OC)c(OC)c(OC)c2)[C@@H]1OC [Reserpine, reserpine]
[3]; Reserpine 10^−4M intracavernosal
  Inhibiting effects on ICP: 59.63%
[3]; Reserpine 10^−5M intracavernosal
  Inhibiting effects on ICP: 33.34%
[3]; Reserpine 10^−6M intracavernosal
  Inhibiting effects on ICP: 17.39%
[3]; Reserpine 10^−7M intracavernosal
  Inhibiting effects on ICP: 4.81%
[1]
  sexual dysfunction associated with the agent, % of patients: 30-40%
